“Also recorded” adds a separate entry of the source.
Legend:
[1] = test system: skin; conditions: topical treatment of skin; Griffiths et al. 1993; cited from earlier work
[2] = test system: procollagen-I; assay: Immunohistochemical analysis of procollagen-I expression in photodamaged forearm skin after topical retinoic acid; assay type: in vivo, human (women)
Description: (§1) Two groups of women were recruited with identical or nearly identical degrees of mild to moderate photodamage on each outer forearm. They were supplied with 0.05% retinoic acid in a moisturising base (Retinova®) and also with a colour matched moisturising cream with similar sensory characteristics (Dermacare® lotion) but no active ingredients as a placebo control. Each participant of the two groups applied the Retinova® to one outer forearm and placebo (Dermacare®) to the other outer forearm. Group 1 applied the products daily to their outer forearms for 14 weeks and the Group 2 applied the products to their outer forearms for 28 weeks. At the end of the studies two full thickness 4 mm punch biopsies were taken from the treated areas of each forearm. Immunohistochemical analysis of the biopsy tissue taken from the participants was performed to identify the effect of retinoic acid treatment on the expression of the skin extracellular matrix components decorin and procollagen-I as compared with the placebo treated forearms. The following procedure was followed:
(§2) Antibody dilution buffer for wax sections was composed of Tris Buffered Saline (TBS), 3% bovine serum albumin (BSA), 0.05% Triton X-100 and 0.05% sodium azide. Primary antibodies for procollagen-I (amino terminal) were obtained from Chemicon International Inc. (cat# MAB 1912, rat IgG1) and used on wax sections at a dilution of 1:800, overnight at 4° C. after the section had been pre-treated trypsin (0.5 mg/ml, 25 minutes, 37° C.). Primary antibodies for decorin were obtained from Biogenesis (rabbit polyclonal) and used on wax sections at a dilution of 1:800, overnight at 4° C. Anti-rat biotinylated secondary antibodies were obtained from DAKO (cat# E0468, rabbit polyclonal) was applied to wax sections at a dilution of 1:400. Anti-rabbit biotinylated secondary antibodies were obtained from Amersham (cat# RPN 1004, donkey polyclonal) was applied to wax sections at a dilution of 1:400. Streptavidin conjugated alkaline phosphatase was obtained from Zymed (cat# 43-4322) and used at a concentration of 1:2500. […]

[3] = test system: decorin; assay: Decorin synthesis in human dermal fibroblasts (dot blot assay of conditioned medium); assay type: cell-based; conditions: Fibroblast, 24 h, read-out: upregulation of decorin synthesis
Procedure: Preparation of Dermal Fibroblast Conditioned Medium Primary human foreskin fibroblasts at passage 2 (P2) were seeded into 12-well plates at 10000 cells/cm^2 and maintained for 24 hours in an atmosphere of 5% carbon dioxide and 4% oxygen in Dulbeccos Modified Eagles Medium (DMEM) supplemented with 10% foetal calf serum. After this time the cells were washed with serum free DMEM and then incubated in fresh serum free DMEM for a further 60 hours. The fibroblast monolayers were then washed again with serum free DMEM. Test reagents and vehicle controls were added to the cells in triplicate in a final volume of 0.4 ml/well fresh serum free DMEM and incubated for a further 24 hours. This fibroblast conditioned medium was either analysed immediately or snap frozen in liquid nitrogen and stored at -70° C. for future analysis. The cells were then counted and data from the dot-blot analysis subsequently standardised to cell number.
Samples of conditioned medium from dermal fibroblasts treated with vehicle (as a control) or test reagents were supplemented with 20 mM dithiothreitol (1:10 dilution of 200 mM stock solution) and 0.1% sodium dodecylsulphate (1:100 dilution of 10% stock solution), mixed well and then incubated at 75° C. for 2 minutes. […]

[4] = test system: decorin; assay: Immunohistochemical analysis of decorin expression in photodamaged forearm skin after topical retinoic acid; assay type: in vivo, human (women)
Description: as §1, §2

[5] = test system: keratinocytes; assay: Keratinocyte SDS viability assay (Neutral Red); assay type: cell-based; conditions: 24 h, read-out: cell viability produced by SDS
Procedure: Keratinocytes were grown in 96 well plates to approximately 80% confluency in keratinocyte growth medium (KGM) which was then replaced with KGM without hydrocortisone for 24-48 hours. The cells were then treated with a concentration of sodium dodecyl sulphate (SDS) which will produce cell viability of approximately 50% ([…]). The test compounds "c9 t11 CLA" and "t10 c12 CLA" in table 7 are the same as the agents described above in Example 3. […] After incubating for 24 hours the medium was removed and the viability determined by the Neutral Red method. With this method the cells were incubated for 3 hours in KGM containing 25 μg/ml neutral red after which the medium was removed and the cells were then extracted with […] of 1% (v/v) acetic acid, 50% (v/v) ethanol for 30 min units. The absorbance of the extract at 562 nm was determined and the viability evaluated by reference to wells which contained neither SDS nor test compounds.

[6] = Group 1 after 14 weeks, 0.05% retinoic acid (Retinova) daily vs placebo, total 16 participants
[7] = Group 2 after 28 weeks, 0.05% retinoic acid (Retinova) vs placebo, total 15 participants
[8] = topical retinoic acid (Retinova) vs placebo (Dermacare)

For `CC1=C(/C=C/C(C)=C/C=C/C(C)=C/C(=O)O)C(C)(C)CCC1` [Retinoic acid, retinoic acid], the “wrinkle effacement / dermal repair” value [1] is listed as “induces dermal repair of photodamaged skin; also recorded: wrinkle effacement and dermal repair following topical treatment of skin with retinoic acid arises through new collagen deposition and synthesis in the skin”, the “No. of Participants showing marked increase in expression of procollagen-I” value [2, 6] is listed as 9 No. of Participants and the “No. of Participants showing marked increase in expression of procollagen-I” value [2, 7] is listed as 10 No. of Participants. For the same compound, the “procollagen-I expression in photodamaged skin” value [2, 8] was “marked upregulation”, the activity at 1 µM [3] was 138 ± 14% and the “No. of Participants showing marked increase in expression of decorin” value [4, 6] was 10 No. of Participants. For the same compound, the “No. of Participants showing marked increase in expression of decorin” value [4, 7] was 15 No. of Participants and the “decorin expression in photodamaged skin” value [4, 8] was “marked upregulation”.
`CCCCCCCCCCCCOS(=O)(=O)[O-].[Na+]` [sodium dodecyl sulphate (SDS), sodium dodecyl sulphate] gave a viability at 5 µg/mL [5] of about 50%.

From patent US6287553A, “Skin care composition” (Unilever Home & Personal Care USA, division of Conopco, Inc., priority 1998, dated 2001)
